According to article PMC12136037, “Type II kinase inhibitors that target Parkinson’s disease–associated LRRK2” (Science Advances, 2025):
Several values for one entry are separate records, joined by “and”; a condition that tells them apart may be missing. Equal values may be shown once.

What was measured:
LRRK2^KW = target: T1, LRRK2^KW (Homo sapiens, UniProt Q5S007); test: DSF thermal stabilization of LRRK2^KW; type: binding; conditions: DSF, LRRK2^KW, 10 μM inhibitor
T1 construct: LRRK2 R1847 to E2527; His6-Z-tag (TEV cleavable) (N, cleaved yes); host or cells: Sf9 insect cells (baculovirus)
T1 sequence (Q5S007 1847-2527): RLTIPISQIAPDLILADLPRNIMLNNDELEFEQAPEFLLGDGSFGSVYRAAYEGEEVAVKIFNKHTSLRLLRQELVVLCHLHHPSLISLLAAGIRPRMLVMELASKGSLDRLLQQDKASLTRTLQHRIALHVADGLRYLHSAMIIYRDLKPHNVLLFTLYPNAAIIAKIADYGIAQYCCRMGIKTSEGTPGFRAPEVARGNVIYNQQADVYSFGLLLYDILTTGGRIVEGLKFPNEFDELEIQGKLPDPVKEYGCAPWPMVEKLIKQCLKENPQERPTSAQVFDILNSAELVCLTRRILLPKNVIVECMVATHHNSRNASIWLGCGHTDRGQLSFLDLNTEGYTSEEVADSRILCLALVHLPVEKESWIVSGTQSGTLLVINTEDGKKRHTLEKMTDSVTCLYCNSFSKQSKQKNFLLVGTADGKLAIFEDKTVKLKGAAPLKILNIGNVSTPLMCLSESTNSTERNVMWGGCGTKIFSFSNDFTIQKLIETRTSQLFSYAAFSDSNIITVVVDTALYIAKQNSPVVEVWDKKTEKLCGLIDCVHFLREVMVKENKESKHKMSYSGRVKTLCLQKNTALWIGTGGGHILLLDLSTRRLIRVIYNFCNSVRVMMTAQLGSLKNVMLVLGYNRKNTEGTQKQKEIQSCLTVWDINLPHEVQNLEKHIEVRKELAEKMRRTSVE
Experimental: To characterize binding between small molecules and LRRK2^KW, induced thermal stabilization was measured by DSF according to previously established protocols ([47]). In brief, LRRK2^KW was diluted to 4 μM in 20 mM Hepes (pH 7.4), 150 mM NaCl, 0.5 mM TCEP, 0.5% glycerol, 20 μM GDP, and 2.5 mM MgCl2, and SYPRO Orange was added (1:1000, MilliporeSigma). Inhibitor (10 μM) to be tested was added to a final sample volume of 20 μl per well of a 96-well plate (white, Starlab). […] The fluorescence was plotted against the temperature, and the melting point (Tm) was determined as the minimum of the first derivative relative to the control.

LRRK2^RCKW = target: T2, LRRK2^RCKW (Homo sapiens, UniProt Q5S007); test: Biochemical LRRK2 activity assay (PhosphoSense, AssayQuant SOX peptide AQT0615); conditions: for normalized response (LRRK2 activity): normalized to 0% (no kinase) and 100% (no inhibitor) control, two singlicate columns per compound
T2 construct: LRRK2 R1327 to E2527; His6-Z-tag (TEV cleavable) (N, cleaved yes); host or cells: Sf9 insect cells (baculovirus)
T2 sequence (Q5S007 1327-2527): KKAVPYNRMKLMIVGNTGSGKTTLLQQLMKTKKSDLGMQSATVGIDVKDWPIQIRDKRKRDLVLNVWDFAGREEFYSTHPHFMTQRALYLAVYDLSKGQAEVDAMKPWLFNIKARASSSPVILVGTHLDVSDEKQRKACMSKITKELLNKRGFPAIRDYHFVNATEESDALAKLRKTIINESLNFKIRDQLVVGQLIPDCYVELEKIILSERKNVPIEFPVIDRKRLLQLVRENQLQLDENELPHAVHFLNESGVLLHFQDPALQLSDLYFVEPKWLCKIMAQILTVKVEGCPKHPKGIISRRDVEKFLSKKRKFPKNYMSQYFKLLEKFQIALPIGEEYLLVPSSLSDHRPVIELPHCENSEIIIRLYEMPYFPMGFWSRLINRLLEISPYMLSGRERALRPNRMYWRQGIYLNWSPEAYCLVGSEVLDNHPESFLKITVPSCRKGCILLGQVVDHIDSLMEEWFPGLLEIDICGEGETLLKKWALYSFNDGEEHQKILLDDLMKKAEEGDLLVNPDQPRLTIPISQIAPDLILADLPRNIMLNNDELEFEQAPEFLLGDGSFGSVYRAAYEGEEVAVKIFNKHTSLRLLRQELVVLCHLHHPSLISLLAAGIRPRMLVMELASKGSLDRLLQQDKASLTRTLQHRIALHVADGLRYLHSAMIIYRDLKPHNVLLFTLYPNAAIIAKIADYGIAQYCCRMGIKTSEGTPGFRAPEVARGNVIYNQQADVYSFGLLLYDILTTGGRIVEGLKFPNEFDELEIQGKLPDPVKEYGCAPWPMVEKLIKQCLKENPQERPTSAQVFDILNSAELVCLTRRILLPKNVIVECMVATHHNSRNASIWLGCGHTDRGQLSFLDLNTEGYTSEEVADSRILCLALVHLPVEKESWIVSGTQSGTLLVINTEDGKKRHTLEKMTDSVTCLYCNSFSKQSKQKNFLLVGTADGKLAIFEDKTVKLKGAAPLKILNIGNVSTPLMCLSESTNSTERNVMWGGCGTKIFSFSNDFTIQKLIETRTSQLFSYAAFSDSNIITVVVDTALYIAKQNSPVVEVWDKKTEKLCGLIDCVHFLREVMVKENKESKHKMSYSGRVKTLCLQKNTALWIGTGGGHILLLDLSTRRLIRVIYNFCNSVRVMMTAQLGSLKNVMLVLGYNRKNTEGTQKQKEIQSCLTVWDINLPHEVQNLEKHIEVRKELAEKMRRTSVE
Experimental: Two wells per compound were used as 0% (without protein and compound) and 100% (without compound) control. […] The 0% control wells were filled with 10 μl of pure reaction buffer. With the ECHO, 5 nl of 100 mM ATP was pipetted into each well, the plates were centrifuged at 1500g for 2 min, and the reaction was incubated at room temperature for 4 hours. The fluorescence of the SOX-peptide after 360-nm excitation was measured at 487-nm emission with a PHERAstar plate reader (BMG Labtech). The IC50 values were calculated from a nonlinear regression of the log[inhibitor] versus the normalized response with GraphPad Prism 8 (www.graphpad.com/, RRID:SCR_002798).

[1] = LRRK2^RCKW kinase activity, in vitro

∆Tm (K) (LRRK2^KW) | IC50 (LRRK2^RCKW; [1]) | normalized response (LRRK2 activity) (LRRK2^RCKW; log[inhibitor(mol)] -4.82391) | normalized response (LRRK2 activity) (LRRK2^RCKW; log[inhibitor(mol)] -5.12494) | normalized response (LRRK2 activity) (LRRK2^RCKW; log[inhibitor(mol)] -5.60206) | normalized response (LRRK2 activity) (LRRK2^RCKW; log[inhibitor(mol)] -6.30103) | normalized response (LRRK2 activity) (LRRK2^RCKW; log[inhibitor(mol)] -6.90309) | normalized response (LRRK2 activity) (LRRK2^RCKW; log[inhibitor(mol)] -7.30103) | normalized response (LRRK2 activity) (LRRK2^RCKW; log[inhibitor(mol)] -7.60206) | normalized response (LRRK2 activity) (LRRK2^RCKW; log[inhibitor(mol)] -8.09691) | normalized response (LRRK2 activity) (LRRK2^RCKW; log[inhibitor(mol)] -8.61979) | normalized response (LRRK2 activity) (LRRK2^RCKW; log[inhibitor(mol)] -9.09691) | normalized response (LRRK2 activity) (LRRK2^RCKW; log[inhibitor(mol)] -9.39794) | IC50 (LRRK2^RCKW; Table S2, bound printed in μM under head IC50 [nM]) | Compound
7.0 K | 0.912 ± 0.141 µM | 4.225% and -5.581% | 6.8846% and 7.148% | 31.5798% and 32.6109% | 61.7209% and 66.4318% | 86.2516% and 93.0519% | 93.3097% and 89.5476% | 86.8493% and 91.0776% | 91.1928% and 88.5988% | 102.068% and 96.0518% | 105.369% and 96.9676% | 104.196% and 102.019% | – | O=C(c1cccc(NC(=O)C2(C(=O)Nc3ccc(F)cc3)CC2)c1)c1c[nH]c2ncnc(N3CCOCC3)c12 [Compound 8]
6.0 K | 0.694 ± 0.001 µM | -13.5275% and -8.323% | -11.1035% and -8.9537% | 14.4144% and 11.8039% | 58.5784% and 59.582% | 93.4358% and 94.7027% | 100.456% and 104.273% | 103.702% and 110.256% | 103.006% and 100.445% | 97.1047% and 100.867% | 96.2602% and 102.309% | 100.406% and 102.43% | – | O=C(Nc1ccc(F)cc1)C1(C(=O)Nc2cccc(-c3c[nH]c4ncnc(N5CCOCC5)c34)c2)CCCC1 [Compound 3]
7.8 K | 10.5 µM | 48.7254% and 32.1819% | 55.2664% and 57.3114% | 81.8607% and 85.9555% | 94.4496% and 98.762% | 100.265% and 101.228% | 105.467% and 108.576% | 105.158% and 64.9692% | 97.331% and 101.237% | 106.173% and 99.8401% | 141.905% and 102.383% | 109.403% and 105.477% | – | Cc1ccc(-c2c[nH]c3ncnc(N4CCOCC4)c23)cc1NC(=O)C1(C(=O)Nc2ccc(F)cc2)CC1 [Compound 7]
1.0 K | – | – | – | – | – | – | 124.559% and 124.399% | 116.776% and 118.915% | 103.198% and 104.843% | 103.872% and 98.2729% | 102.243% and 101.201% | 101.448% and 104.602% | – | COc1cc(S(C)(=O)=O)ccc1Nc1nc(N(C)C)c2c(-c3cccc(NC(=O)Nc4cc(C(C)(C)C)nn4-c4ccc(C)cc4)c3)c[nH]c2n1 [Compound 33]
3.0 K | – | 115.049% and 93.8598% | 99.0859% and 93.2217% | 93.6133% and 98.8538% | 94.4738% and 97.6114% | 97.3406% and 97.6501% | 98.4526% and 101.585% | 103.828% and 100.546% | 94.8702% and 94.0339% | 91.8535% and 95.7453% | 97.0119% and 90.234% | 103.089% and 99.1004% | > 15 µM | O=C(Nc1ccc(F)cc1)C1(C(=O)Nc2cccc(-c3ccc4n[nH]cc4c3)c2)CC1 [Compound 47]

Compound | ∆Tm (K) (LRRK2^KW) | IC50 (LRRK2^RCKW; [1]) | normalized response (LRRK2 activity) (LRRK2^RCKW; log[inhibitor(mol)] -4.82391) | normalized response (LRRK2 activity) (LRRK2^RCKW; log[inhibitor(mol)] -5.12494) | normalized response (LRRK2 activity) (LRRK2^RCKW; log[inhibitor(mol)] -5.60206) | normalized response (LRRK2 activity) (LRRK2^RCKW; log[inhibitor(mol)] -6.30103) | normalized response (LRRK2 activity) (LRRK2^RCKW; log[inhibitor(mol)] -6.90309) | normalized response (LRRK2 activity) (LRRK2^RCKW; log[inhibitor(mol)] -7.30103) | normalized response (LRRK2 activity) (LRRK2^RCKW; log[inhibitor(mol)] -7.60206) | normalized response (LRRK2 activity) (LRRK2^RCKW; log[inhibitor(mol)] -8.09691) | normalized response (LRRK2 activity) (LRRK2^RCKW; log[inhibitor(mol)] -8.61979) | normalized response (LRRK2 activity) (LRRK2^RCKW; log[inhibitor(mol)] -9.09691) | normalized response (LRRK2 activity) (LRRK2^RCKW; log[inhibitor(mol)] -9.39794) | IC50 (LRRK2^RCKW; Table S2, bound printed in μM under head IC50 [nM])
Cn1cc(-c2c[nH]c3ncnc(N4CCOCC4)c23)cc1C#N [PF-360, reference compound] | 14.0 ± 0.7 K | – | -6.35% and -14.8637% | -13.9757% and -14.0596% | -14.9079% and -13.9094% | -16.2775% and -13.8122% | -15.2172% and -15.9196% | -14.8814% and -10.0789% | – | -1.676% and 1.585% | 61.433% and 54.956% | 90.2569% and 81.7741% | 97.0785% and 81.4958% | –
